Assays:
Type in all cases: in vivo
[1] = test system: pigweed (Amaranthus retroflexus); assay: Test A pre-/postemergence: pigweed; conditions: for Pigweed plant response rating: Postemergence; for Plant response rating, Pigweed: Preemergence
How it was run: (§1)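 Soil medium was loam blended with sand; treatments pre- and postemergence were applied concurrently, postemergence at one- to two-leaf stage. Approximately ten days in greenhouse preceded visual comparison with untreated controls, scored 0 (no effect) to 100 (complete control).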

[2] = test system: foxtail, giant (giant foxtail, Setaria faberii); assay: Test A pre-/postemergence: foxtail, giant; conditions: for Foxtail, Giant plant response rating: Postemergence; for Plant response rating, Foxtail, Giant: Preemergence
How it was run: as §1

[3] = test system: velvetleaf (Abutilon theophrasti); assay: Test A pre-/postemergence: velvetleaf; conditions: for Velvetleaf plant response rating: Postemergence; for Plant response rating, Velvetleaf: Preemergence
How it was run: as §1

[4] = test system: ducksalad (Heteranthera limosa); assay: Test C flooded paddy test: ducksalad; conditions: scale 0 to 100 (0 no effect, 100 complete control)
How it was run: (§2)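 Plants at 2-leaf stage in pots flooded 3 cm above soil; compounds applied directly into the paddy water, depth maintained. Visual rating against controls after 13–15 days in greenhouse, scale 0 (no effect) to 100 (complete control).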

rice (Oryza sativa) = assay: Test C flooded paddy test: rice; conditions: scale 0 to 100 (0 no effect, 100 complete control)
How it was run: as §2

[5] = test system: sedge, umbrella (small-flower umbrella sedge, Cyperus difformis); assay: Test C flooded paddy test: sedge, umbrella; conditions: scale 0 to 100 (0 no effect, 100 complete control)
How it was run: as §2

[6] = test system: morningglory (Ipomoea spp.); assay: Test A pre-/postemergence: morningglory; conditions: for Morningglory plant response rating: Postemergence; for Plant response rating, Morningglory: Preemergence
How it was run: as §1

[7] = test system: barnyardgrass (Echinochloa crus-galli); assay: Test A pre-/postemergence: barnyardgrass; conditions: for Barnyardgrass plant response rating: Postemergence; for Plant response rating, Barnyardgrass: Preemergence
How it was run: as §1

[8] = test system: barnyardgrass (Echinochloa crus-galli); assay: Test C flooded paddy test: barnyardgrass; conditions: scale 0 to 100 (0 no effect, 100 complete control)
How it was run: as §2

[9] = test system: crabgrass, large (large crabgrass, Digitaria sanguinalis); assay: Test A pre-/postemergence: crabgrass, large; conditions: for Crabgrass, Large plant response rating: Postemergence; for Plant response rating, Crabgrass, Large: Preemergence
How it was run: as §1

corn (Zea mays) = assay: Test A pre-/postemergence: corn; conditions: for Corn plant response rating: Postemergence; for Plant response rating, Corn: Preemergence
How it was run: as §1

[10] = test system: wheat (Triticum aestivum); assay: Test A pre-/postemergence: wheat; conditions: for Wheat plant response rating: Postemergence; for Plant response rating, Wheat: Preemergence
How it was run: as §1

[11] = 125 g ai/ha, 0 to 100 scale, 0 is no effect, 100 is complete control
[12] = 500 g ai/ha, visual rating on 0 to 100 scale (0 no effect, 100 complete control), approximately ten days
[13] = 125 g ai/ha, 0 to 100 scale where 0 is no effect and 100 is complete control
[14] = 500 g ai/ha, 0 to 100 scale (0 no effect, 100 complete control)
[15] = Flood (flooded paddy test), 125 g ai/ha, visual rating after 13 to 15 days
[16] = Flood (flooded paddy test), 250 g ai/ha, visual rating after 13 to 15 days
[17] = 125 g ai/ha, 0 to 100 scale (0 no effect, 100 complete control)
[18] = 500 g ai/ha, 0 to 100 scale, 0 is no effect, 100 is complete control
[19] = Flood (flooded paddy test), 62 g ai/ha, visual rating after 13 to 15 days

Cc1nn(-c2ccc(F)cc2)nc1Oc1cc(C(F)(F)F)nn1C [Compound 126]
80: Velvetleaf plant response rating [3, 12] | Plant response rating, Sedge, Umbrella [5, 16] | Morningglory plant response rating [6, 12] | Plant response rating, Barnyardgrass [7, 14]
65: Plant response rating, Ducksalad [4, 16]
10: Plant response rating, Velvetleaf [3, 13] | Plant response rating, Rice (rice (Oryza sativa); [15]) | Plant response rating, Morningglory [6, 13] | Wheat plant response rating [10, 11]
20: Plant response rating, Ducksalad [4, 15] | Plant response rating, Rice (rice (Oryza sativa); [16]) | Barnyardgrass plant response rating [7, 11] | Corn plant response rating (corn (Zea mays); [11]) | Plant response rating, Corn (corn (Zea mays); [14]) | Wheat plant response rating [10, 12]
30: Plant response rating, Sedge, Umbrella ([5]; Flood, 31 g ai/ha) | Plant response rating, Morningglory [6, 14] | Plant response rating, Barnyardgrass [8, 15] | Corn plant response rating (corn (Zea mays); [12])
75: Plant response rating, Sedge, Umbrella [5, 15]
0: Plant response rating, Ducksalad ([4]; Flood, 31 g ai/ha) | Plant response rating, Ducksalad ([4]; Flood, 62 g ai/ha) | Plant response rating, Rice (rice (Oryza sativa); Flood, 31 g ai/ha) | Plant response rating, Rice (rice (Oryza sativa); Flood, 62 g ai/ha) | Plant response rating, Barnyardgrass ([8]; Flood, 31 g ai/ha) | Plant response rating, Barnyardgrass ([8]; Flood, 62 g ai/ha) | Plant response rating, Corn (corn (Zea mays); [13]) | Plant response rating, Wheat [10, 13] | Plant response rating, Wheat [10, 14]
60: Foxtail, Giant plant response rating [2, 11]
90: Foxtail, Giant plant response rating [2, 12] | Plant response rating, Foxtail, Giant [2, 14] | Crabgrass, Large plant response rating [9, 11] | Crabgrass, Large plant response rating [9, 12]
70: Plant response rating, Foxtail, Giant [2, 13] | Morningglory plant response rating [6, 11] | Barnyardgrass plant response rating [7, 12] | Plant response rating, Barnyardgrass [7, 13]
40: Velvetleaf plant response rating [3, 11] | Plant response rating, Velvetleaf [3, 14] | Plant response rating, Sedge, Umbrella ([5]; Flood, 62 g ai/ha) | Plant response rating, Barnyardgrass [8, 16]
100: Pigweed plant response rating [1, 11] | Pigweed plant response rating [1, 12] | Plant response rating, Pigweed [1, 13] | Plant response rating, Pigweed [1, 14] | Plant response rating, Crabgrass, Large [9, 13] | Plant response rating, Crabgrass, Large [9, 14]

Cc1nn(-c2ccc(C(F)(F)F)cc2)nc1Cn1cnc(C(F)(F)F)c1Cl [Compound 13]
0: Pigweed plant response rating [1, 11] | Pigweed plant response rating [1, 12] | Plant response rating, Pigweed [1, 17] | Plant response rating, Pigweed [1, 18] | Foxtail, Giant plant response rating [2, 11] | Plant response rating, Foxtail, Giant [2, 17] | Plant response rating, Foxtail, Giant [2, 18] | Velvetleaf plant response rating [3, 11] | Velvetleaf plant response rating [3, 12] | Plant response rating, Velvetleaf [3, 17] | Plant response rating, Velvetleaf [3, 18] | Plant response rating, Ducksalad [4, 19] | Plant response rating, Ducksalad [4, 16] | Plant response rating, Rice (rice (Oryza sativa); [19]) | Plant response rating, Rice (rice (Oryza sativa); [16]) | Plant response rating, Sedge, Umbrella [5, 19] | Plant response rating, Sedge, Umbrella [5, 16] | Plant response rating, Morningglory [6, 17] | Plant response rating, Morningglory [6, 18] | Barnyardgrass plant response rating [7, 11] | Barnyardgrass plant response rating [7, 12] | Plant response rating, Barnyardgrass [7, 17] | Plant response rating, Barnyardgrass [7, 18] | Plant response rating, Barnyardgrass [8, 19] | Plant response rating, Barnyardgrass [8, 16] | Crabgrass, Large plant response rating [9, 11] | Crabgrass, Large plant response rating [9, 12] | Plant response rating, Crabgrass, Large [9, 17] | Plant response rating, Crabgrass, Large [9, 18] | Corn plant response rating (corn (Zea mays); [11]) | Corn plant response rating (corn (Zea mays); [12]) | Plant response rating, Corn (corn (Zea mays); [17]) | Plant response rating, Corn (corn (Zea mays); [18]) | Wheat plant response rating [10, 11] | Wheat plant response rating [10, 12] | Plant response rating, Wheat [10, 17] | Plant response rating, Wheat [10, 18]
10: Foxtail, Giant plant response rating [2, 12] | Morningglory plant response rating [6, 11] | Morningglory plant response rating [6, 12]

Cc1nn(-c2ccc(C(F)(F)F)cc2)nc1Cn1cc(C(F)(F)F)cn1 [Compound 32]
30: Crabgrass, Large plant response rating [9, 12] | Plant response rating, Crabgrass, Large [9, 18]
70: Plant response rating, Pigweed [1, 18]
0: Plant response rating, Pigweed [1, 17] | Plant response rating, Velvetleaf [3, 17] | Plant response rating, Velvetleaf [3, 18] | Plant response rating, Ducksalad [4, 19] | Plant response rating, Ducksalad [4, 15] | Plant response rating, Ducksalad [4, 16] | Plant response rating, Ducksalad ([4]; Flood, 31 g ai/ha) | Plant response rating, Rice (rice (Oryza sativa); [19]) | Plant response rating, Rice (rice (Oryza sativa); [15]) | Plant response rating, Rice (rice (Oryza sativa); [16]) | Plant response rating, Rice (rice (Oryza sativa); Flood, 31 g ai/ha) | Plant response rating, Sedge, Umbrella [5, 19] | Plant response rating, Sedge, Umbrella [5, 15] | Plant response rating, Sedge, Umbrella [5, 16] | Plant response rating, Sedge, Umbrella ([5]; Flood, 31 g ai/ha) | Plant response rating, Morningglory [6, 17] | Plant response rating, Morningglory [6, 18] | Plant response rating, Barnyardgrass [7, 17] | Plant response rating, Barnyardgrass [7, 18] | Plant response rating, Barnyardgrass [8, 19] | Plant response rating, Barnyardgrass [8, 15] | Plant response rating, Barnyardgrass [8, 16] | Plant response rating, Barnyardgrass ([8]; Flood, 31 g ai/ha) | Corn plant response rating (corn (Zea mays); [11]) | Plant response rating, Corn (corn (Zea mays); [17]) | Plant response rating, Corn (corn (Zea mays); [18]) | Wheat plant response rating [10, 11] | Wheat plant response rating [10, 12] | Plant response rating, Wheat [10, 17] | Plant response rating, Wheat [10, 18]
100: Pigweed plant response rating [1, 12]
60: Pigweed plant response rating [1, 11]
20: Foxtail, Giant plant response rating [2, 12] | Velvetleaf plant response rating [3, 11] | Velvetleaf plant response rating [3, 12] | Crabgrass, Large plant response rating [9, 11]
80: Plant response rating, Foxtail, Giant [2, 18]
10: Foxtail, Giant plant response rating [2, 11] | Plant response rating, Foxtail, Giant [2, 17] | Morningglory plant response rating [6, 11] | Barnyardgrass plant response rating [7, 11] | Barnyardgrass plant response rating [7, 12] | Plant response rating, Crabgrass, Large [9, 17] | Corn plant response rating (corn (Zea mays); [12])
50: Morningglory plant response rating [6, 12]

Reference: US9302999B2, “Substituted triazoles as herbicides” (E. I. DU PONT DE NEMOURS AND COMPANY, priority 2012, dated 2016)
